This note sets out measurements from ChEMBL document CHEMBL5375981, “Enhanced Tumor Targeting and Penetration of Proteolysis-Targeting Chimeras through iRGD Peptide Conjugation: A Strategy for Precise Protein Degradation in Breast Cancer” (J Med Chem, 2023).

For data set [1], the system named is L02. As to the kind of experiment: Antiproliferative activity against human L02 cells harboring minimal integrin alphaVbeta3 expression assessed as inhibition of cell growth incubated for 72 hrs by CCK-8 assay. Type of data set: functional, cell-based. The following applies: L02, 72 h. A general note: Tetrazolium dyes change colour on reduction, which living cells bring about.

Data set [2] has as its system MCF7. Nature of the data set: Antiproliferative activity against human MCF7 cells harboring low integrin alphaVbeta3 expression assessed as inhibition of cell growth incubated for 72 hrs by CCK-8 assay. The following applies: MCF7, 72 h. Type of data set: functional, cell-based.
The target in data set [3] is Bromodomain-containing protein 4 (Homo sapiens) (UniProt O60885). Nature of the data set: Induction of BRD4 degradation in human MDA-MB-231 cells harboring high integrin alphaVbeta3 expression at 300 nM incubated for 16 to 20 hrs by Western blot analysis. Type of data set: cell-based. To be noted: time 16-20 hrs. In general terms: Immunoblotting shows a protein as a band on a membrane.

Data set [4] shares this target. As to the kind of experiment: Induction of BRD4 degradation in human MDA-MB-231 cells harboring high integrin alphaVbeta3 expression at 1 uM incubated for 12 hrs by immunofluorescence staining based confocal microscopic analysis. Type of data set: cell-based.
Data set [5] has the same target. As to the kind of experiment: Induction of BRD4 degradation in human L02 cells lacking integrin alphaVbeta3 expression at 0.01 to 1 uM incubated for 24 hrs by Western blot analysis. Type of data set: cell-based. To be noted: dose 0.01-1 µM.
The target is the same in data set [6]. As to the kind of experiment: Induction of BRD4 degradation in human MCF7 cells harboring low integrin alphaVbeta3 expression at 300 nM incubated for 12 hrs by immunofluorescence staining based confocal microscopic analysis. Type of data set: cell-based.
For data set [7], the system named is MDA-MB-231. As to the kind of experiment: Antiproliferative activity against human MDA-MB-231 cells harboring high integrin alphaVbeta3 expression assessed as inhibition of cell growth incubated for 72 hrs by CCK-8 assay. Type of data set: functional, cell-based. To be noted: MDA-MB-231, 72 h.
The nature of data set [8]: Stability of compound in PBS containing 5% serum at 50 uM measured after 72 hrs by LC-MS analysis. Type of data set: physicochemical, cell-free. To be noted: read-out: Stability.
The nature of data set [9]: Drug release in PBS assessed as increase in (2S)-1-((R)-2-(tert-butyl)-17-((S)-4-(4-chlorophenyl)-2,3,9-trimethyl-6H-thieno[3,2-f][1,2,4]triazolo[4,3-a][1,4]diazepin-6-yl)-4,16-dioxo-6,9,12-trioxa-3,15-diazaheptadecanoyl)-4-hydroxy-N-((S)-1-(4-(4-methylthiazol-5-yl)phenyl)ethyl)pyrrolidine-2-carboxamide concentration at 50 uM in presence of GSH by LC-MS analysis. Type of data set: ADME. The following applies: buffer, TDE = time-dependent effect.

Data set [10] has as its target Bromodomain-containing protein 4 (Homo sapiens) (UniProt O60885). Nature of the data set: Induction of BRD4 degradation in human L02 cells lacking integrin alphaVbeta3 expression at 300 nM incubated for 12 hrs by immunofluorescence staining based confocal microscopic analysis. Type of data set: cell-based.
For data set [11] the target is unchanged. As to the kind of experiment: Induction of BRD4 degradation in human MCF7 cells harboring low integrin alphaVbeta3 expression at 0.01 to 1 uM incubated for 24 hrs by Western blot analysis. Type of data set: cell-based. The following applies: dose 0.01-1 µM.
Data set [12] shares this target. Nature of the data set: Induction of BRD4 degradation in human MDA-MB-231 cells harboring high integrin alphaVbeta3 expression at 0.11 uM incubated for 24 hrs by Western blot analysis. Type of data set: cell-based.
The nature of data set [13]: Solubility in distilled water measured for 30 mins by ultraviolet spectrophotometry analysis. Type of data set: physicochemical.
Data set [14] deals with MDA-MB-231. Nature of the data set: Antitumor activity against human MDA-MB-231 cells xenografted in BALB/C nude mouse assessed as tumor growth inhibition at 5 uM, iv administered every other day and measured after 21 days by vernier caliper method relative to control. Type of data set: functional. To be noted: MDA-MB-231, 504 h, time 21 day, read-out: TGI. Background: Xenograft models place foreign cells or tissue in a host animal.

Data set [15] deals with Bromodomain-containing protein 4 (Homo sapiens) (UniProt O60885). Nature of the data set: Induction of BRD4 degradation in human MCF7 cells harboring low integrin alphaVbeta3 expression at 300 nM measured at 20 hrs by Western blot analysis relative to control. Type of data set: cell-based.
A short description of data set [16]: Toxicity in BALB/C mouse xenografted with human MDA-MB-231 cells assessed as effect on lung weight at 5 uM, iv administered every other day for 21 days. Type of data set: organism-based. The following applies: in vivo, 504 h, time 21 day.
Data set [17] deals with Bromodomain-containing protein 4 (Homo sapiens) (UniProt O60885). As to the kind of experiment: Induction of BRD4 degradation in human MCF7 cells harboring low integrin alphaVbeta3 expression at 300 nM measured at 16 hrs by Western blot analysis. Type of data set: cell-based.
Data set [18] in a line: Toxicity in BALB/C mouse xenografted with human MDA-MB-231 cells assessed as adverse reactions at 5 uM, iv administered for 21 days and measured every 3 days. Type of data set: organism-based. The following applies: in vivo, 504 h, time 21 day.
Data set [19] in a line: Toxicity in BALB/C mouse xenografted with human MDA-MB-231 cells assessed as effect on liver weight at 5 uM, iv administered every other day for 21 days. To be noted: in vivo, 504 h, time 21 day. Type of data set: organism-based.
Data set [20] concerns MCF7. Nature of the data set: Antimigratory activity against human MCF7 cells harboring low integrin alphaVbeta3 expression assessed as inhibition of cell migration at 200 nM incubated for 48 hrs by crystal violet staining based transwell assay. Type of data set: functional.
For data set [21], the system named is L02. Nature of the data set: Antimigratory activity against human L02 cells lacking integrin alphaVbeta3 expression assessed as inhibition of cell migration at 200 nM incubated for 48 hrs by crystal violet staining based transwell assay. Type of data set: functional.
The nature of data set [22]: Toxicity in BALB/C mouse xenografted with human MDA-MB-231 cells assessed as effect on spleen weight at 5 uM, iv administered every other day for 21 days. The following applies: in vivo, 504 h, time 21 day. Type of data set: organism-based.
Data set [23] deals with Bromodomain-containing protein 4 (Homo sapiens) (UniProt O60885). As to the kind of experiment: Induction of BRD4 degradation in human MCF7 cells harboring low integrin alphaVbeta3 expression at 0.11 uM incubated for 24 hrs by Western blot analysis relative to control. Type of data set: cell-based.
Data set [24] can be described thus: Toxicity in BALB/C mouse xenografted with human MDA-MB-231 cells assessed as effect on heart weight at 5 uM, iv administered every other day for 21 days. The following applies: in vivo, 504 h, time 21 day. Type of data set: organism-based.
In data set [25] the target is Bromodomain-containing protein 4 (Homo sapiens) (UniProt O60885). Nature of the data set: Induction of BRD4 degradation in human L02 cells lacking integrin alphaVbeta3 expression at 0.33 uM incubated for 24 hrs by Western blot analysis relative to control. Type of data set: cell-based.
Data set [26] in a line: Toxicity in BALB/C mouse xenografted with human MDA-MB-231 cells assessed as weight loss at 5 uM, iv administered for 21 days and measured every 3 days. To be noted: in vivo, 504 h, time 21 day. Type of data set: organism-based.
Data set [27] has as its target Bromodomain-containing protein 4 (Homo sapiens) (UniProt O60885). Nature of the data set: Induction of BRD4 degradation in human L02 cells lacking integrin alphaVbeta3 expression at 300 nM measured at 24 hrs by Western blot analysis relative to control. Type of data set: cell-based.
The nature of data set [28]: Toxicity in BALB/C mouse xenografted with human MDA-MB-231 cells assessed as effect on kidney weight at 5 uM, iv administered every other day for 21 days. Type of data set: organism-based. To be noted: in vivo, 504 h, time 21 day.
For data set [29], the target named is Bromodomain-containing protein 4 (Homo sapiens) (UniProt O60885). Nature of the data set: Induction of BRD4 degradation in human MDA-MB-231 cells harboring high integrin alphaVbeta3 expression at 300 nM measured at 24 hrs by Western blot analysis. Type of data set: cell-based.
The nature of data set [30]: Antitumor activity against patient-derived Breast cancer organoid assessed as inhibition of cell growth incubated for approximately 3 to 5 days by CCK-8 assay. Type of data set: functional, tissue-based. The following applies: Homo sapiens.
Data set [31] deals with MDA-MB-231. As to the kind of experiment: Antitumor activity against human MDA-MB-231 cells xenografted in BALB/C nude mouse assessed as disruption of tumor blood vessel wall at 5 uM, iv administered every other day and measured after 21 days by H and E staining based assay. Type of data set: functional, organism-based. The following applies: time 21.0 day.
A short description of data set [32]: Toxicity in BALB/C mouse xenografted with human MDA-MB-231 cells assessed as lung damage at 5 uM, iv administered every other day for 21 days and measured 37 days post treatment by H and E staining based assay. Type of data set: organism-based. The following applies: in vivo, 1392 h, time 58 day.
The target in data set [33] is Bromodomain-containing protein 4 (Homo sapiens) (UniProt O60885). As to the kind of experiment: Induction of BRD4 degradation in human MCF7 cells harboring low integrin alphaVbeta3 expression at 0.04 uM incubated for 24 hrs by Western blot analysis. Type of data set: cell-based.

Values after ≈ are worked out from the molar mass of the structure shown. Active and inactive are the calls of the source. No cut-off for these calls is given here. A value given as a limit tells only on which side of the number the result lay.

Turning to `Cc1ncsc1-c1ccc([C@H](C)NC(=O)[C@@H]2C[C@@H](OC(=O)OCCSSCCOC(=O)CCC(=O)N[C@@H](CCCNC(=N)N)C(=O)NCC(=O)N[C@@H](CC(=O)O)C(=O)O)CN2C(=O)[C@@H](NC(=O)COCCOCCOCCNC(=O)C[C@@H]2N=C(c3ccc(Cl)cc3)c3c(sc(C)c3C)-n3c(C)nnc32)C(C)(C)C)cc1`, the IC50 in the data set on L02 [1] is 980 nM; in the data set with MCF7 [2] it was 190 nM; in the data set on MDA-MB-231 [7] it was 190 nM. Moreover, the result in data set [3], in [4] and in [12] was Active. Besides, the result in data set [5], in [6], in data set [10] and in data set [11] was inactive. Besides, the remaining at 72 h, 50 µM in [8] is 94.6%. Also, the Drug metabolism result in data set [9] is on record as “Tde”. In data set [13], the solubility at 0.5 h is greater than 10 mM.
Turning to `Cc1ncsc1-c1ccc([C@H](C)NC(=O)[C@@H]2C[C@@H](OC(=O)CCC(=O)N[C@@H](Cc3c[nH]cn3)C(=O)N[C@@H](Cc3c[nH]cn3)C(=O)NCC(=O)N[C@@H](CCCNC(=N)N)C(=O)NCC(=O)N[C@@H](CC(=O)O)C(=O)O)CN2C(=O)[C@@H](NC(=O)COCCOCCOCCNC(=O)C[C@@H]2N=C(c3ccc(Cl)cc3)c3c(sc(C)c3C)-n3c(C)nnc32)C(C)(C)C)cc1`, the remaining at 72 h, 50 µM in [8] came to 10.2%. This compound also came in with a solubility at 0.5 h in data set [13] greater than 10 mM.
As for `Cc1ncsc1-c1ccc([C@H](C)NC(=O)[C@@H]2C[C@@H](O)CN2C(=O)[C@@H](NC(=O)COCCOCCOCCNC(=O)C[C@@H]2N=C(c3ccc(Cl)cc3)c3c(sc(C)c3C)-n3c(C)nnc32)C(C)(C)C)cc1`, the IC50 stood at 400 nM in the data set on L02 [1], 30 nM with MCF7 [2], 90 nM in the data set with MDA-MB-231 [7] and 2100 nM in [30]. In addition, in the data set with MDA-MB-231 [14], the inhibition in vivo at 5 µM was 36.3%. In addition, the Activity in data set [15] is 100%; in [16] it was “Non-Toxic”; in [18] it was “Non-Toxic”; in [19], “Non-Toxic”; in [22] it was “Non-Toxic”; in data set [23], 100%. In addition, the Activity entry in data set [24] is “Non-Toxic”; in data set [25] it was 100%; in [26], “Non-Toxic”; in data set [27], 100%; in data set [28] it was “Non-Toxic”; in data set [32], “Toxic”. The outcome (in data set [17]; with MCF7 [20]; in the data set on L02 [21]; in [4]; in [6]; in [29]) was Active. The outcome in [10], in data set [33] and in data set [12] was Active. Also, the result in the data set with MDA-MB-231 [31] was inactive. Further, the concentration in solution in data set [13] (solubility at 0.5 h) was 29.5 mM (≈ 30 mg/mL).

As a reminder, the IC50 is the concentration needed to halve the response being measured. The solubility is the concentration that dissolves in the medium under given conditions. High values mean a readily soluble substance, low ones a poorly soluble substance.
